Measured values from ChEMBL document CHEMBL5303304, “EUbOPEN Chemogenomics Library - IncuCyte” (2023).
“And” between values parts separate entries of the source, which are not always exact repeats. Equal entries are not always repeated.

Legend:
Assay type in all cases: toxicity, cell-based
Fibroblast = test: Incucyte cell viability with human fibroblast; conditions: 10 µM, compound concentration 10 uM
U2OS = test: Incucyte cell viability with U2OS; conditions: human, 10 µM, compound concentration 10 uM
HEK-293T = test: Incucyte cell viability with HEK293T; conditions: human, 10 µM, compound concentration 10 uM
Also: unitless GR value; below 1 slowed growth and below 0 cell loss.

CC(=O)N1CCN([C@H]2CCC[C@@H](NC(=O)c3cc4c(F)ccc(C)c4[nH]3)C2)CC1.O=C(O)C(F)(F)F
Growth Rate (Fibroblast; 0 h, replicate number 1): -0.07
Growth Rate (Fibroblast; 0 h, replicate number 2): -0.08
Growth Rate (Fibroblast; 6 h, replicate number 2): 0.42
Growth Rate (Fibroblast; 12 h, replicate number 2): 0.88
Growth Rate (Fibroblast; 18 h, replicate number 2): 0.88
Growth Rate (Fibroblast; 24 h, replicate number 2): 0.9
Growth Rate (U2OS; 0 h, replicate number 1): 0.28
Growth Rate (U2OS; 0 h, replicate number 2): 0.78
Growth Rate (U2OS; 6 h, replicate number 2): 0.95
Growth Rate (U2OS; 12 h, replicate number 1): 0.84
Growth Rate (U2OS; 12 h, replicate number 2): 0.96
Growth Rate (U2OS; 18 h, replicate number 2): 0.94
Growth Rate (U2OS; 24 h, replicate number 1): 0.99
Growth Rate (U2OS; 24 h, replicate number 2): 0.88
Growth Rate (HEK-293T; 0 h, replicate number 1): 0.94
Growth Rate (HEK-293T; 0 h, replicate number 2): -0.6
Growth Rate (HEK-293T; 6 h, replicate number 1): 0.9
Growth Rate (HEK-293T; 6 h, replicate number 2): 0.46
Growth Rate (HEK-293T; 12 h, replicate number 1): 0.75
Growth Rate (HEK-293T; 12 h, replicate number 2): 0.4
Growth Rate (HEK-293T; 18 h, replicate number 2): 0.68
Growth Rate (HEK-293T; 24 h, replicate number 2): 0.48

COc1c(C(=O)/C=C/c2ccccc2)c(O)c(OC)c2occc12
Growth Rate (Fibroblast; 6 h, replicate number 2): -0.26
Growth Rate (Fibroblast; 12 h, replicate number 1): -0.31
Growth Rate (Fibroblast; 12 h, replicate number 2): 0.35
Growth Rate (Fibroblast; 18 h, replicate number 1): 0
Growth Rate (Fibroblast; 18 h, replicate number 2): 0.84
Growth Rate (Fibroblast; 24 h, replicate number 1): 0.86
Growth Rate (Fibroblast; 24 h, replicate number 2): 0.71
Growth Rate (U2OS; 0 h, replicate number 1): -0.43
Growth Rate (U2OS; 0 h, replicate number 2): -0.14
Growth Rate (U2OS; 6 h, replicate number 1): 0.86
Growth Rate (U2OS; 6 h, replicate number 2): 0.76
Growth Rate (U2OS; 12 h, replicate number 1): 0.64
Growth Rate (U2OS; 12 h, replicate number 2): 0.6
Growth Rate (U2OS; 18 h, replicate number 1): 0.71
Growth Rate (U2OS; 18 h, replicate number 2): 0.55
Growth Rate (U2OS; 24 h, replicate number 1): 0.78
Growth Rate (U2OS; 24 h, replicate number 2): 0.83
Growth Rate (HEK-293T; 6 h, replicate number 1): -0.45
Growth Rate (HEK-293T; 6 h, replicate number 2): -0.38
Growth Rate (HEK-293T; 12 h, replicate number 1): 0.27
Growth Rate (HEK-293T; 12 h, replicate number 2): 0.28
Growth Rate (HEK-293T; 18 h, replicate number 1): 0.86
Growth Rate (HEK-293T; 18 h, replicate number 2): 0.53
Growth Rate (HEK-293T; 24 h, replicate number 2): 0.75

Cc1cc(C)c(NC(=O)C2CC3CCC2C3)c(C)c1 (stereo unspecified)
Growth Rate (Fibroblast; 6 h, replicate number 1): -0.94
Growth Rate (Fibroblast; 6 h, replicate number 2): -0.52
Growth Rate (Fibroblast; 12 h, replicate number 2): 0.78
Growth Rate (Fibroblast; 18 h, replicate number 2): 0.75
Growth Rate (Fibroblast; 24 h, replicate number 2): 0.97
Growth Rate (U2OS; 6 h, replicate number 1): 0.68
Growth Rate (U2OS; 12 h, replicate number 1): 0.47
Growth Rate (U2OS; 12 h, replicate number 2): 0.78
Growth Rate (U2OS; 18 h, replicate number 1): 0.75
Growth Rate (U2OS; 24 h, replicate number 1): 0.83
Growth Rate (HEK-293T; 6 h, replicate number 2): 0.65

Cc1cc(-c2cnc(N)c3c(-c4ccc5scnc5c4)csc23)n(C)n1
Growth Rate (Fibroblast; 0 h, replicate number 1): -1
Growth Rate (Fibroblast; 6 h, replicate number 1): 0.88
Growth Rate (Fibroblast; 6 h, replicate number 2): 0.31
Growth Rate (Fibroblast; 12 h, replicate number 1): 0.42
Growth Rate (Fibroblast; 12 h, replicate number 2): 0.67
Growth Rate (Fibroblast; 18 h, replicate number 1): 0.91
Growth Rate (Fibroblast; 18 h, replicate number 2): 0.9
Growth Rate (Fibroblast; 24 h, replicate number 2): 0.92
Growth Rate (U2OS; 0 h, replicate number 1): -0.98
Growth Rate (U2OS; 0 h, replicate number 2): -0.85
Growth Rate (U2OS; 6 h, replicate number 2): 0.91
Growth Rate (U2OS; 12 h, replicate number 1): 0.94
Growth Rate (U2OS; 12 h, replicate number 2): -0.33
Growth Rate (U2OS; 18 h, replicate number 1): 0.91
Growth Rate (HEK-293T; 6 h, replicate number 1): -0.34
Growth Rate (HEK-293T; 12 h, replicate number 1): -0.15
Growth Rate (HEK-293T; 18 h, replicate number 1): 0.02
Growth Rate (HEK-293T; 24 h, replicate number 1): 0.06

Cc1ccc(CNc2ncnc3ccc(-c4ccc(CO)o4)cc23)o1
Growth Rate (Fibroblast; 0 h, replicate number 2): 0.71
Growth Rate (Fibroblast; 6 h, replicate number 1): -1
Growth Rate (U2OS; 0 h, replicate number 1): -0.83
Growth Rate (U2OS; 18 h, replicate number 2): 0.94
Growth Rate (U2OS; 24 h, replicate number 2): 0.86
Growth Rate (HEK-293T; 6 h, replicate number 2): 0.11
Growth Rate (HEK-293T; 12 h, replicate number 2): 0.71
Growth Rate (HEK-293T; 18 h, replicate number 2): 0.69
Growth Rate (HEK-293T; 24 h, replicate number 2): 0.79

Cc1cc(=O)oc2cc(NC(=O)[C@H](Cc3ccc(I)cc3)NC(=O)[C@H]3N[C@@H]4CC[C@H]3C4)ccc12.O=C(O)C(F)(F)F
Growth Rate (Fibroblast; 0 h, replicate number 1): -1
Growth Rate (Fibroblast; 6 h, replicate number 2): -0.13
Growth Rate (Fibroblast; 12 h, replicate number 2): 0.19
Growth Rate (Fibroblast; 18 h, replicate number 2): 0.35
Growth Rate (Fibroblast; 24 h, replicate number 2): 0.61
Growth Rate (U2OS; 0 h, replicate number 1): -0.48
Growth Rate (U2OS; 6 h, replicate number 1): 0.26
Growth Rate (U2OS; 12 h, replicate number 1): 0.89
Growth Rate (U2OS; 18 h, replicate number 1): 0.97
Growth Rate (U2OS; 18 h, replicate number 2): 0.92
Growth Rate (U2OS; 24 h, replicate number 1): 0.88
Growth Rate (U2OS; 24 h, replicate number 2): 0.85
Growth Rate (HEK-293T; 6 h, replicate number 1): -0.02
Growth Rate (HEK-293T; 12 h, replicate number 1): 0.55
Growth Rate (HEK-293T; 18 h, replicate number 1): 0.61
Growth Rate (HEK-293T; 24 h, replicate number 1): 0.76

CC(C)[C@@H]1CC[C@@H](C)C[C@@H]1P(=O)(c1ccccc1)c1ccccc1
Growth Rate (Fibroblast; 0 h, replicate number 1): 0.25
Growth Rate (Fibroblast; 18 h, replicate number 2): 0.92
Growth Rate (Fibroblast; 24 h, replicate number 1): 0.9
Growth Rate (U2OS; 6 h, replicate number 1): 0.44
Growth Rate (U2OS; 12 h, replicate number 1): 0.44
Growth Rate (U2OS; 12 h, replicate number 2): 0.96
Growth Rate (U2OS; 18 h, replicate number 1): 0.78
Growth Rate (U2OS; 24 h, replicate number 1): 0.74
Growth Rate (U2OS; 24 h, replicate number 2): 1
Growth Rate (HEK-293T; 0 h, replicate number 1): 0.49
Growth Rate (HEK-293T; 6 h, replicate number 2): 0.56

COc1cc2nc(-c3cc(F)ccc3O)nc(N[C@@H]3CNC[C@H]3C(C)(C)O)c2cc1OC.Cl.Cl
Growth Rate (Fibroblast; 0 h, replicate number 1): -1
Growth Rate (Fibroblast; 0 h, replicate number 2): 0.21
Growth Rate (Fibroblast; 6 h, replicate number 1): -0.98
Growth Rate (Fibroblast; 6 h, replicate number 2): -1
Growth Rate (Fibroblast; 18 h, replicate number 1): 0.18
Growth Rate (Fibroblast; 24 h, replicate number 1): 0.06
Growth Rate (U2OS; 0 h, replicate number 1): -0.66
Growth Rate (U2OS; 12 h, replicate number 1): -0.39 and -0.54
Growth Rate (U2OS; 12 h, replicate number 2): -0.46 and -0.33
Growth Rate (U2OS; 18 h, replicate number 1): -0.4 and -0.47
Growth Rate (U2OS; 18 h, replicate number 2): -0.37 and -0.32
Growth Rate (U2OS; 24 h, replicate number 1): -0.35 and -0.37
Growth Rate (U2OS; 24 h, replicate number 2): -0.34 and -0.27
Growth Rate (HEK-293T; 6 h, replicate number 1): -0.41 and -0.9
Growth Rate (HEK-293T; 6 h, replicate number 2): -0.53
Growth Rate (HEK-293T; 12 h, replicate number 1): -0.39 and -0.88
Growth Rate (HEK-293T; 12 h, replicate number 2): -0.5 and -0.73
Growth Rate (HEK-293T; 18 h, replicate number 1): -0.28 and -0.69
Growth Rate (HEK-293T; 18 h, replicate number 2): -0.42 and -0.53
Growth Rate (HEK-293T; 24 h, replicate number 1): -0.23 and -0.61
Growth Rate (HEK-293T; 24 h, replicate number 2): -0.33 and -0.39

CCNC1=N[C@@H]2[C@@H](O)[C@H](O)[C@@H](CO)O[C@@H]2S1
Growth Rate (Fibroblast; 6 h, replicate number 2): 0.18
Growth Rate (Fibroblast; 12 h, replicate number 1): 0.91
Growth Rate (Fibroblast; 12 h, replicate number 2): 0.76
Growth Rate (Fibroblast; 18 h, replicate number 1): 0.83
Growth Rate (Fibroblast; 18 h, replicate number 2): 0.8
Growth Rate (Fibroblast; 24 h, replicate number 1): 0.92
Growth Rate (Fibroblast; 24 h, replicate number 2): 0.99
Growth Rate (U2OS; 0 h, replicate number 1): -0.37
Growth Rate (U2OS; 0 h, replicate number 2): 0.47
Growth Rate (U2OS; 6 h, replicate number 1): 0.53
Growth Rate (U2OS; 6 h, replicate number 2): 0.45
Growth Rate (U2OS; 12 h, replicate number 1): 0.86
Growth Rate (U2OS; 12 h, replicate number 2): 0.79
Growth Rate (U2OS; 18 h, replicate number 1): 0.91
Growth Rate (U2OS; 18 h, replicate number 2): 0.81
Growth Rate (U2OS; 24 h, replicate number 1): 0.95
Growth Rate (U2OS; 24 h, replicate number 2): 0.74
Growth Rate (HEK-293T; 0 h, replicate number 1): -0.01
Growth Rate (HEK-293T; 0 h, replicate number 2): -0.15
Growth Rate (HEK-293T; 6 h, replicate number 2): 0.53
Growth Rate (HEK-293T; 12 h, replicate number 2): 0.93
Growth Rate (HEK-293T; 18 h, replicate number 1): 0.78
Growth Rate (HEK-293T; 24 h, replicate number 1): 0.86
Growth Rate (HEK-293T; 24 h, replicate number 2): 0.89

C[C@H](CCC(=O)[O-])[C@H]1CC[C@H]2[C@@H]3[C@@H](O)C[C@@H]4C[C@H](O)CC[C@]4(C)[C@H]3CC[C@]12C.[Na+]
Growth Rate (Fibroblast; 0 h, replicate number 2): 0.84
Growth Rate (Fibroblast; 6 h, replicate number 1): 0.88
Growth Rate (Fibroblast; 6 h, replicate number 2): 0.93
Growth Rate (Fibroblast; 12 h, replicate number 2): 0.91
Growth Rate (Fibroblast; 18 h, replicate number 1): 0.83
Growth Rate (Fibroblast; 18 h, replicate number 2): 0.77
Growth Rate (Fibroblast; 24 h, replicate number 2): 0.88
Growth Rate (U2OS; 0 h, replicate number 1): -0.51
Growth Rate (U2OS; 0 h, replicate number 2): 0.8
Growth Rate (U2OS; 6 h, replicate number 1): 0.4
Growth Rate (U2OS; 12 h, replicate number 1): 0.47
Growth Rate (U2OS; 12 h, replicate number 2): 1
Growth Rate (U2OS; 18 h, replicate number 1): 0.72
Growth Rate (HEK-293T; 0 h, replicate number 1): 0.59
Growth Rate (HEK-293T; 24 h, replicate number 2): 1
